According to the NIST ThermoML archive (doi:10.1016/j.fluid.2011.01.013):
Numbers after ± are expanded uncertainties.

Assay: xn = mol fraction of the nth substance listed
Settings: Gas, Oscillating disk viscometry

CCN(CC)CC [triethylamine] + CO
viscosity (296.97 K, Mass density=2.1808 kg/m3, x2 = 0.4998): 0.007913 ± 0.00034 mPa·s | viscosity (297.25 K, Mass density=0.6964 kg/m3, x2 = 0.4996): 0.007853 ± 0.00034 mPa·s | viscosity (298.22 K, Mass density=1.2804 kg/m3, x2 = 0.3322): 0.007476 ± 0.00033 mPa·s | viscosity (298.82 K, Mass density=0.6964 kg/m3, x2 = 0.4996): 0.007887 ± 0.00034 mPa·s | viscosity (298.92 K, Mass density=1.1039 kg/m3, x2 = 0.4982): 0.007914 ± 0.00034 mPa·s | viscosity (299.02 K, Mass density=0.6482 kg/m3, x2 = 0.4999): 0.007865 ± 0.00034 mPa·s | viscosity (310.39 K, Mass density=0.6964 kg/m3, x2 = 0.4996): 0.008055 ± 0.00036 mPa·s | viscosity (310.51 K, Mass density=2.1808 kg/m3, x2 = 0.4998): 0.008259 ± 0.00035 mPa·s | viscosity (310.56 K, Mass density=0.6482 kg/m3, x2 = 0.4999): 0.008025 ± 0.00034 mPa·s | viscosity (310.62 K, Mass density=1.1039 kg/m3, x2 = 0.4982): 0.008147 ± 0.00034 mPa·s | viscosity (310.75 K, Mass density=1.5253 kg/m3, x2 = 0.5035): 0.008235 ± 0.00035 mPa·s | viscosity (311.73 K, Mass density=1.2804 kg/m3, x2 = 0.3322): 0.007712 ± 0.00033 mPa·s | viscosity (324.1 K, Mass density=2.1808 kg/m3, x2 = 0.4998): 0.008539 ± 0.00035 mPa·s | viscosity (324.27 K, Mass density=1.2804 kg/m3, x2 = 0.3322): 0.007852 ± 0.00034 mPa·s | viscosity (324.64 K, Mass density=0.6964 kg/m3, x2 = 0.4996): 0.008338 ± 0.00035 mPa·s | viscosity (325.29 K, Mass density=1.1039 kg/m3, x2 = 0.4982): 0.008337 ± 0.00035 mPa·s | viscosity (325.44 K, Mass density=0.6482 kg/m3, x2 = 0.4999): 0.008367 ± 0.00035 mPa·s | viscosity (326.59 K, Mass density=1.5253 kg/m3, x2 = 0.5035): 0.008476 ± 0.00035 mPa·s | viscosity (337.6 K, Mass density=1.2804 kg/m3, x2 = 0.3322): 0.008072 ± 0.00034 mPa·s | viscosity (338.04 K, Mass density=1.5253 kg/m3, x2 = 0.5035): 0.008626 ± 0.00036 mPa·s | viscosity (338.18 K, Mass density=0.6482 kg/m3, x2 = 0.4999): 0.008693 ± 0.00036 mPa·s | viscosity (338.18 K, Mass density=1.1039 kg/m3, x2 = 0.4982): 0.008632 ± 0.00036 mPa·s | viscosity (338.37 K, Mass density=0.6964 kg/m3, x2 = 0.4996): 0.008695 ± 0.00036 mPa·s | viscosity (338.58 K, Mass density=2.1808 kg/m3, x2 = 0.4998): 0.00869 ± 0.00036 mPa·s | viscosity (352.3 K, Mass density=0.6964 kg/m3, x2 = 0.4996): 0.009039 ± 0.00036 mPa·s | viscosity (352.47 K, Mass density=0.6482 kg/m3, x2 = 0.4999): 0.009053 ± 0.00037 mPa·s | viscosity (352.57 K, Mass density=1.1039 kg/m3, x2 = 0.4982): 0.009009 ± 0.00036 mPa·s | viscosity (352.83 K, Mass density=2.1808 kg/m3, x2 = 0.4998): 0.008949 ± 0.00036 mPa·s | viscosity (352.91 K, Mass density=1.2804 kg/m3, x2 = 0.3322): 0.008441 ± 0.00035 mPa·s | viscosity (353.02 K, Mass density=1.5253 kg/m3, x2 = 0.5035): 0.009026 ± 0.00036 mPa·s | viscosity (365.7 K, Mass density=2.1808 kg/m3, x2 = 0.4998): 0.009281 ± 0.00038 mPa·s | viscosity (365.96 K, Mass density=1.5253 kg/m3, x2 = 0.5035): 0.009349 ± 0.00037 mPa·s | viscosity (366.02 K, Mass density=1.2804 kg/m3, x2 = 0.3322): 0.008766 ± 0.00036 mPa·s | viscosity (366.12 K, Mass density=1.5253 kg/m3, x2 = 0.5035): 0.009363 ± 0.00037 mPa·s | viscosity (366.13 K, Mass density=0.6482 kg/m3, x2 = 0.4999): 0.009411 ± 0.00038 mPa·s | viscosity (366.22 K, Mass density=1.2804 kg/m3, x2 = 0.3322): 0.008747 ± 0.00036 mPa·s | viscosity (366.24 K, Mass density=0.6964 kg/m3, x2 = 0.4996): 0.009388 ± 0.00037 mPa·s | viscosity (366.29 K, Mass density=1.1039 kg/m3, x2 = 0.4982): 0.009353 ± 0.00037 mPa·s | viscosity (366.41 K, Mass density=2.1808 kg/m3, x2 = 0.4998): 0.009307 ± 0.00038 mPa·s | viscosity (366.96 K, Mass density=0.6482 kg/m3, x2 = 0.4999): 0.009415 ± 0.00038 mPa·s | viscosity (367.89 K, Mass density=1.1039 kg/m3, x2 = 0.4982): 0.009381 ± 0.00037 mPa·s | viscosity (379.75 K, Mass density=1.2804 kg/m3, x2 = 0.3322): 0.009075 ± 0.00037 mPa·s | viscosity (380.83 K, Mass density=2.1808 kg/m3, x2 = 0.4998): 0.009681 ± 0.00038 mPa·s | viscosity (381.57 K, Mass density=0.6482 kg/m3, x2 = 0.4999): 0.009793 ± 0.00038 mPa·s | viscosity (381.81 K, Mass density=1.5253 kg/m3, x2 = 0.5035): 0.00977 ± 0.00038 mPa·s | viscosity (381.91 K, Mass density=1.1039 kg/m3, x2 = 0.4982): 0.009758 ± 0.00038 mPa·s | viscosity (383.76 K, Mass density=0.6964 kg/m3, x2 = 0.4996): 0.009828 ± 0.00039 mPa·s | viscosity (394.29 K, Mass density=2.1808 kg/m3, x2 = 0.4998): 0.01004 ± 0.00039 mPa·s | viscosity (394.84 K, Mass density=1.5253 kg/m3, x2 = 0.5035): 0.01009 ± 0.00039 mPa·s | viscosity (394.95 K, Mass density=0.6964 kg/m3, x2 = 0.4996): 0.0101 ± 0.00039 mPa·s | viscosity (394.98 K, Mass density=1.2804 kg/m3, x2 = 0.3322): 0.009437 ± 0.00037 mPa·s | viscosity (395.04 K, Mass density=0.6482 kg/m3, x2 = 0.4999): 0.01012 ± 0.00039 mPa·s | viscosity (395.34 K, Mass density=1.1039 kg/m3, x2 = 0.4982): 0.01008 ± 0.00039 mPa·s | viscosity (408.74 K, Mass density=1.2804 kg/m3, x2 = 0.3322): 0.009753 ± 0.00038 mPa·s | viscosity (409.01 K, Mass density=1.1039 kg/m3, x2 = 0.4982): 0.01044 ± 0.0004 mPa·s | viscosity (409.18 K, Mass density=2.1808 kg/m3, x2 = 0.4998): 0.01042 ± 0.0004 mPa·s | viscosity (409.61 K, Mass density=0.6482 kg/m3, x2 = 0.4999): 0.0105 ± 0.0004 mPa·s | viscosity (410.61 K, Mass density=1.5253 kg/m3, x2 = 0.5035): 0.0105 ± 0.0004 mPa·s | viscosity (410.75 K, Mass density=0.6964 kg/m3, x2 = 0.4996): 0.01052 ± 0.0004 mPa·s | viscosity (422.83 K, Mass density=1.2804 kg/m3, x2 = 0.3322): 0.01008 ± 0.00039 mPa·s | viscosity (423.21 K, Mass density=1.5253 kg/m3, x2 = 0.5035): 0.01081 ± 0.00041 mPa·s | viscosity (423.31 K, Mass density=0.6964 kg/m3, x2 = 0.4996): 0.01083 ± 0.00041 mPa·s | viscosity (423.64 K, Mass density=2.1808 kg/m3, x2 = 0.4998): 0.01078 ± 0.00041 mPa·s | viscosity (423.81 K, Mass density=1.1039 kg/m3, x2 = 0.4982): 0.01081 ± 0.00041 mPa·s | viscosity (425.55 K, Mass density=0.6482 kg/m3, x2 = 0.4999): 0.01091 ± 0.00041 mPa·s | viscosity (436.79 K, Mass density=1.5253 kg/m3, x2 = 0.5035): 0.01116 ± 0.00041 mPa·s | viscosity (436.89 K, Mass density=2.1808 kg/m3, x2 = 0.4998): 0.01111 ± 0.00041 mPa·s | viscosity (436.91 K, Mass density=0.6964 kg/m3, x2 = 0.4996): 0.01117 ± 0.00042 mPa·s | viscosity (437.47 K, Mass density=1.1039 kg/m3, x2 = 0.4982): 0.01116 ± 0.00041 mPa·s | viscosity (438.27 K, Mass density=0.6482 kg/m3, x2 = 0.4999): 0.01122 ± 0.00042 mPa·s | viscosity (441.21 K, Mass density=1.2804 kg/m3, x2 = 0.3322): 0.01053 ± 0.0004 mPa·s | viscosity (451.54 K, Mass density=1.2804 kg/m3, x2 = 0.3322): 0.01076 ± 0.0004 mPa·s | viscosity (451.6 K, Mass density=1.5253 kg/m3, x2 = 0.5035): 0.01154 ± 0.00042 mPa·s | viscosity (451.74 K, Mass density=1.1039 kg/m3, x2 = 0.4982): 0.01151 ± 0.00042 mPa·s | viscosity (452.02 K, Mass density=2.1808 kg/m3, x2 = 0.4998): 0.01151 ± 0.00042 mPa·s | viscosity (452.69 K, Mass density=0.6964 kg/m3, x2 = 0.4996): 0.01157 ± 0.00043 mPa·s | viscosity (453.25 K, Mass density=0.6482 kg/m3, x2 = 0.4999): 0.01161 ± 0.00043 mPa·s | viscosity (466.65 K, Mass density=2.1808 kg/m3, x2 = 0.4998): 0.01188 ± 0.00043 mPa·s | viscosity (466.76 K, Mass density=1.5253 kg/m3, x2 = 0.5035): 0.01191 ± 0.00043 mPa·s | viscosity (467.26 K, Mass density=1.1039 kg/m3, x2 = 0.4982): 0.0119 ± 0.00043 mPa·s | viscosity (467.4 K, Mass density=1.2804 kg/m3, x2 = 0.3322): 0.01113 ± 0.00041 mPa·s | viscosity (467.62 K, Mass density=0.6482 kg/m3, x2 = 0.4999): 0.01197 ± 0.00043 mPa·s | viscosity (480.98 K, Mass density=1.2804 kg/m3, x2 = 0.3322): 0.01145 ± 0.00042 mPa·s | viscosity (481.28 K, Mass density=1.1039 kg/m3, x2 = 0.4982): 0.01225 ± 0.00044 mPa·s | viscosity (481.51 K, Mass density=2.1808 kg/m3, x2 = 0.4998): 0.01224 ± 0.00044 mPa·s | viscosity (481.53 K, Mass density=0.6964 kg/m3, x2 = 0.4996): 0.01229 ± 0.00044 mPa·s | viscosity (482.14 K, Mass density=0.6482 kg/m3, x2 = 0.4999): 0.01231 ± 0.00044 mPa·s | viscosity (482.73 K, Mass density=1.5253 kg/m3, x2 = 0.5035): 0.01229 ± 0.00044 mPa·s | viscosity (494.94 K, Mass density=0.6964 kg/m3, x2 = 0.4996): 0.01263 ± 0.00045 mPa·s | viscosity (495.26 K, Mass density=1.2804 kg/m3, x2 = 0.3322): 0.01179 ± 0.00043 mPa·s | viscosity (495.28 K, Mass density=2.1808 kg/m3, x2 = 0.4998): 0.0126 ± 0.00045 mPa·s | viscosity (495.78 K, Mass density=1.5253 kg/m3, x2 = 0.5035): 0.01264 ± 0.00045 mPa·s | viscosity (496.37 K, Mass density=0.6482 kg/m3, x2 = 0.4999): 0.01269 ± 0.00045 mPa·s | viscosity (497.66 K, Mass density=1.1039 kg/m3, x2 = 0.4982): 0.01267 ± 0.00045 mPa·s
